Test results published in BindingDB's records for doi:10.1002/cbic.200500061 (University of Bristol, 2005).

Target: T1, 1-deoxy-D-xylulose 5-phosphate reductoisomerase (Escherichia coli (strain K12), UniProt P45568)
T1 sequence (P45568 whole entry): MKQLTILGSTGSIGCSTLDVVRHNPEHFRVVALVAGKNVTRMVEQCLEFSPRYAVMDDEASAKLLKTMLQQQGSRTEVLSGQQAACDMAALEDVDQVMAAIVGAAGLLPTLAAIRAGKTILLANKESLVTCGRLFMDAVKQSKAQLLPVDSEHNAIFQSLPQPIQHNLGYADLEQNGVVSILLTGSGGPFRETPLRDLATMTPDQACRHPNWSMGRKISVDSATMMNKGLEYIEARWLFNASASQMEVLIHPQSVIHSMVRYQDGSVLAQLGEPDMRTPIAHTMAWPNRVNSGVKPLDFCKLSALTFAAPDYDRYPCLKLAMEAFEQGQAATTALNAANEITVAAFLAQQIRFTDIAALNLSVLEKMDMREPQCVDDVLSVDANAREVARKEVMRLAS
Assay: Inhibition Assay
Conditions: pH 8; 37 °C
Procedure: The assay was monitored spectrophotometrically through the consumption of beta-NADPH. The inhibitor assays contained inhibitor at concentrations of 0.1-15 mM cyclic analogues and 5-35 mM phosphonic acid derivates.

Going from `NCCCP(=O)(O)O` [Phosphate analogue, 8] to `CC(=O)NCCCP(=O)(O)O` [Phosphate analogue, 9], the Ki rises from 4 mM to 6.5 mM (1.6-fold). The first binds more tightly here.

Compared with `O=C1N[C@H](COP(=O)(O)O)CO1` [Phosphate analogue, (S)-21], `O=C1OC[C@@H](COP(=O)(O)O)N1O` [Phosphate analogue, (s)-14] is 5.5-fold lower in Ki: 4.1 mM for the first, 0.75 mM for the second. The second binds more tightly here.
